In the experiment the target is NLRP3 inflammasome (Homo sapiens, UniProt Q96P20). Briefly: Inhibition of IL-1β release, NLRP3 inflammasome activation assay in HMDM. Type of experiment: cell-based. As to conditions: inhibition of IL-1β release, class symbols, read-out: Avg. IL-1β IC50 HMDM. How it is done: The following assays can be used to determine inhibitory activity of test compounds on the NLRP3 inflammasome using common stimuli such as adenosine triphosphate, nigericin, LeuLeu-OMe or monosodium urate crystals (MSU).
Chain of NLRP3 inflammasome (Q96P20 whole entry): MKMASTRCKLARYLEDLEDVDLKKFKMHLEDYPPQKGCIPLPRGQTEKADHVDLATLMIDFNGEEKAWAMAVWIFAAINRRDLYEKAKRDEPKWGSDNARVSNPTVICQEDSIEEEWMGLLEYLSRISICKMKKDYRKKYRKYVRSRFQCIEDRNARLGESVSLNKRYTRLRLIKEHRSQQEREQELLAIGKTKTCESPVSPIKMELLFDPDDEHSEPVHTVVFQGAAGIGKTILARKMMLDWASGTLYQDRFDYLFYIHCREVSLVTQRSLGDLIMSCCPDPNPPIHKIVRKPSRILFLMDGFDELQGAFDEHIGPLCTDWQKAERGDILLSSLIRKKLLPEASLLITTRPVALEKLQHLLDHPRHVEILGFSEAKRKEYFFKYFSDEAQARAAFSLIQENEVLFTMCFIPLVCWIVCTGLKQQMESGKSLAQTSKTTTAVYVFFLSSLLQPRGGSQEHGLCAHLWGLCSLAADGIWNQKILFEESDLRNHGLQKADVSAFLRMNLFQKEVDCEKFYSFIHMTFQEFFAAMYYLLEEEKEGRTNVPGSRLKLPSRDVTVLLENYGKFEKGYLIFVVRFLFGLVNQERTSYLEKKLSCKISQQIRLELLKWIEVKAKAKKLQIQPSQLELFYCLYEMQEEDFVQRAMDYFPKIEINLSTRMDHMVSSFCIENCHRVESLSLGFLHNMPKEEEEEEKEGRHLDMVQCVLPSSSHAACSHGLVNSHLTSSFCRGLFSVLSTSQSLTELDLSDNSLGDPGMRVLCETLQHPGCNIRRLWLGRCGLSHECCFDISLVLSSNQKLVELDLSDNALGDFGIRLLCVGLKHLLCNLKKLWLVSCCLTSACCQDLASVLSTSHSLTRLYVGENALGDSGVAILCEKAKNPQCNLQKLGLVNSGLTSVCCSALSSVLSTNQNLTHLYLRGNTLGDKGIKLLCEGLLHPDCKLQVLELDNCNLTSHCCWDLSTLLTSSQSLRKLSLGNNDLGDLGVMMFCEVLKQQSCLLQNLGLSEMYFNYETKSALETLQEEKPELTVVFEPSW
To generate HMDM, human monocytes are isolated from buffy coat blood using Ficoll-Plaque Plus (GE Healthcare) and density centrifugation. CD14^+ cell selection is performed using MACS magnetic beads (Miltenyl Biotec).
HMDM are seeded at 1×10^5/ml. […] Medium is removed and replaced with serum free medium (SFM) containing test compound 30 min prior to NLRP3 stimulation. […] ATP can be sourced from Sigma Aldrich, nigericin and MSU from Invivogen and LeuLeu-Ome from Chem-Impex International.
For ELISA and cell death assays cells are seeded in 96 well plates. Supernatants are removed and analysed using ELISA kits according to the manufacturer's instructions (DuoSet® R&D Systems, ReadySetGo!® eBioscience, BD OptEIA™, or Perkin Elmer AlphaLISA®). Cell death is assessed by measurement of LDH release relative to a 100% cell lysis control using the CytoTox96® non-radioactive cytotoxicity assay (Promega).
Turning to `CN(CC(=O)NCCc1ccc(S(=O)(=O)NC(=O)Nc2c3c(cc4c2CCC4)CCC3)cc1)c1ccc([N+](=O)[O-])c2nonc12` [N-(4-(N-(1,2,3,5,6,7-Hexahydros-indacen-4-ylcarbamoyl)sulfamoyl)phenethyl)-2-(methyl(7-nitrobenzo[c][1,2,5]oxadiazol-4-yl)amino)acetamide], the IC50 is below 10000 nM. The value for `Cc1cnc(C(=O)NCCc2ccc(S(=O)(=O)NC(=O)Nc3c4c(cc5c3CCC5)CCC4)cc2)cn1` [N-(4-(N-((1,2,3,5,6,7-hexahydro-s-indacen-4-yl)carbamoyl)sulfamoyl)phenethyl)-5-methylpyrazine-2-carboxamide] was below 1000 nM; that for `CC(C)(O)c1coc(S(=O)(=O)NC(=S)Nc2c3c(cc4c2CCC4)CCC3)c1` [N-((1,2,3,5,6,7-hexahydro-s-indacen-4-yl)carbamothioyl)-4-(2-hydroxypropan-2-yl)furan-2-sulfonamide] was below 1000 nM; that for `Cc1cc(S(=O)(=O)NC(=O)Nc2c3c(cc4c2CCC4)CCC3)nn1C` [N-((1,2,3,5,6,7-hexahydro-s-indacen-4-yl)carbamoyl)-1,5-dimethyl-1H-pyrazole-3-sulfonamide] was below 1000 nM. Under `CC(c1ccccc1)n1ccc(S(=O)(=O)NC(=O)Nc2c3c(cc4c2CCC4)CCC3)n1` (stereo not drawn) [N-((1,2,3,5,6,7-hexahydro-s-indacen-4-yl)carbamoyl)-1-(1-phenylethyl)-1H-pyrazole-3-sulfonamide] stands below 1000 nM; under `O=C(Nc1c2c(cc3c1CCC3)CCC2)NS(=O)(=O)c1ccn(CCN2CCCCC2)n1` [N-((1,2,3,5,6,7-hexahydro-s-indacen-4-yl)carbamoyl)-1-(2-(piperidin-1-yl)ethyl)-1H-pyrazole-3-sulfonamide], below 10000 nM; under `O=C(Nc1c2c(cc3c1CCC3)CCC2)NS(=O)(=O)c1ccn(C(F)(F)F)n1` [N-((1,2,3,5,6,7-hexahydro-s-indacen-4-yl)carbamoyl)-1-(trifluoromethyl)-1H-pyrazole-3-sulfonamide], below 100 nM.

As to `CC(C)n1nc(S(=O)(=O)NC(=O)Nc2c3c(cc4c2CCC4)CCC3)cc1C(F)(F)F` [N-((1,2,3,5,6,7-hexahydro-s-indacen-4-yl)carbamoyl)-1-isopropyl-5-(trifluoromethyl)-1H-pyrazole-3-sulfonamide], the IC50 was below 1000 nM.

As to `Cn1nc(S(=O)(=O)NC(=O)Nc2c3c(cc4c2CCC4)CCC3)cc1C(F)(F)F` [N-((1,2,3,5,6,7-hexahydro-s-indacen-4-yl)carbamoyl)-1-methyl-5-(trifluoromethyl)-1H-pyrazole-3-sulfonamide], the IC50 was below 1000 nM. For `O=C(Nc1c2c(cc3c1CCC3)CCC2)NS(=O)(=O)c1ccn(-c2ccccc2)n1` [N-((1,2,3,5,6,7-hexahydro-s-indacen-4-yl)carbamoyl)-1-phenyl-1H-pyrazole-3-sulfonamide], the IC50 is below 1000 nM. Regarding `O=C(Nc1c2c(cc3c1CCC3)CCC2)NS(=O)(=O)c1ccc2c(c1)S(=O)(=O)CC2` [N-((1,2,3,5,6,7-hexahydro-s-indacen-4-yl)carbamoyl)-2,3-dihydrobenzo[b]thiophene-6-sulfonamide 1,1-dioxide], the IC50 was below 1000 nM.

As for `COc1ccccc1S(=O)(=O)NC(=O)Nc1c2c(cc3c1CCC3)CCC2` [N-((1,2,3,5,6,7-hexahydro-s-indacen-4-yl)carbamoyl)-2-methoxybenzenesulfonamide], the IC50 is below 1000 nM. For the compound `CC(C)(O)c1cccc(S(=O)(=O)NC(=O)Nc2c3c(cc4c2CCC4)CCC3)c1` [N-((1,2,3,5,6,7-hexahydro-s-indacen-4-yl)carbamoyl)-3-(2-hydroxypropan-2-yl)benzenesulfonamide], the IC50 is below 100 nM. Under `O=C(Nc1c2c(cc3c1CCC3)CCC2)NS(=O)(=O)c1cccc(-n2cc(-c3ccccc3)nn2)c1` [N-((1,2,3,5,6,7-hexahydro-s-indacen-4-yl)carbamoyl)-3-(4-phenyl-1H-1,2,3-triazol-1-yl)benzenesulfonamide] stands below 10000 nM; under `[2H]C([2H])([2H])C(O)(c1cc(S(=O)(=O)NC(=O)Nc2c3c(cc4c2CCC4)CCC3)oc1C)C([2H])([2H])[2H]` [N-((1,2,3,5,6,7-hexahydro-s-indacen-4-yl)carbamoyl)-4-(2-hydroxypropan-2-yl-1,1,1,3,3,3-d6)-5-methylfuran-2-sulfonamide], below 100 nM; under `O=C(Nc1c2c(cc3c1CCC3)CCC2)NS(=O)(=O)c1cc(C(F)(F)F)ccn1` [N-((1,2,3,5,6,7-hexahydro-s-indacen-4-yl)carbamoyl)-4-(trifluoromethyl)pyridine-2-sulfonamide], below 100 nM. Under `CC(C)c1cc(S(=O)(=O)NC(=O)Nc2c3c(cc4c2CCC4)CCC3)nn1C` [N-((1,2,3,5,6,7-hexahydro-s-indacen-4-yl)carbamoyl)-5-isopropyl-1-methyl-1H-pyrazole-3-sulfonamide] stands below 1000 nM; under `O=C(Nc1c2c(cc3c1CCC3)CCC2)NS(=O)(=O)c1cnc2c(c1)CCC2` [N-((1,2,3,5,6,7-hexahydro-s-indacen-4-yl)carbamoyl)-6,7-dihydro-5H-cyclopenta[b]pyridine-3-sulfonamide], below 100 nM; under `O=C(Nc1c2c(cc3c1CCC3)CCC2)NS(=O)(=O)c1ccc2c(c1)OCO2` [N-((1,2,3,5,6,7-hexahydro-s-indacen-4-yl)carbamoyl)benzo[d][1,3]dioxole-5-sulfonamide], below 1000 nM. As for `O=C(Nc1c2c(cc3c1CCC3)CCC2)NS(=O)(=O)c1cc2ccccc2o1` [N-((1,2,3,5,6,7-hexahydro-s-indacen-4-yl)carbamoyl)benzofuran-2-sulfonamide], the IC50 was below 1000 nM. Under `O=C(Nc1c2c(cc3c1CCC3)CCC2)NS(=O)(=O)C1CCCCC1` [N-((1,2,3,5,6,7-hexahydro-s-indacen-4-yl)carbamoyl)cyclohexanesulfonamide] stands below 10000 nM. Under `O=C(Nc1c2c(cc3c1CCC3)CCC2)NS(=O)(=O)C1CCCC1` [N-((1,2,3,5,6,7-hexahydro-s-indacen-4-yl)carbamoyl)cyclopentanesulfonamide] stands below 10000 nM; under `O=C(Nc1c2c(cc3c1CCC3)CCC2)NS(=O)(=O)N1CCOCC1` [N-((1,2,3,5,6,7-hexahydro-s-indacen-4-yl)carbamoyl)morpholine-4-sulfonamide], below 10000 nM; under `O=C(Nc1c2c(cc3c1CCC3)CCC2)NS(=O)(=O)c1cccc2cccnc12` [N-((1,2,3,5,6,7-hexahydro-s-indacen-4-yl)carbamoyl)quinoline-8-sulfonamide], below 1000 nM. The value for `O=C(Nc1c2c(cc3c1CCC3)CCC2)NS(=O)(=O)C1CCOCC1` [N-((1,2,3,5,6,7-hexahydro-s-indacen-4-yl)carbamoyl)tetrahydro-2H-pyran-4-sulfonamide] was below 1000 nM; that for `O=C(Nc1c2c(cc3c1CCC3)CCC2)NS(=O)(=O)C1CCOC1` (stereo not drawn) [N-((1,2,3,5,6,7-hexahydro-s-indacen-4-yl)carbamoyl)tetrahydrofuran-3-sulfonamide] was below 10000 nM; that for `CC(C)(O)c1coc(S(=O)(=O)NC(=O)Nc2c3c(cc4c2CCC4O)CCC3)c1` (stereo not drawn) [N-((1-hydroxy-1,2,3,5,6,7-hexahydro-s-indacen-4-yl)carbamoyl)-4-(2-hydroxypropan-2-yl)furan-2-sulfonamide] was below 10000 nM.
